Measured values: PubChem BioAssay AID192 (DTP/NCI, 2004)
Values joined by “and” are separate entries in the source; they are usually repeats but may differ in a detail not shown here. Identical values can stand only once. Toxic doses and inconclusive results are not listed. Peptide text beside a SMILES is read from it. * marks the point of attachment. Boc = CC(C)(C)OC(=O)*

Tested on: BDF1 mice, B16 melanoma ip, median survival T/C
Assay: NCI In Vivo Anticancer Drug Screen. Data for tumor model B16 Melanoma (intraperitoneal) in B6D2F1 (BDF1) mice
Settings: endpoint: median survival time, higher = longer survival
How it was run: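 Antitumor activity is assessed in mice bearing a transplanted tumor, with survival or tumor size compared against vehicle-dosed controls and expressed as T/C.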

[1] = dose: 12.5 mg/kg/injection, schedule: Q01DX009 (ip), vehicle: saline with Tween-80
[2] = dose: 12.5 mg/kg/injection, schedule: Q04DX003 (ip), vehicle: saline with Tween-80
[3] = dose: 25.0 mg/kg/injection, schedule: Q04DX003 (ip), vehicle: saline with Tween-80
[4] = dose: 50.0 mg/kg/injection, schedule: Q01DX009 (ip), vehicle: saline with Tween-80
[5] = dose: 50.0 mg/kg/injection, schedule: Q04DX003 (ip), vehicle: saline with Tween-80
[6] = dose: 100.0 mg/kg/injection, schedule: Q01DX009 (ip), vehicle: saline with Tween-80
[7] = dose: 50.0 mg/kg/injection, schedule: Q01DX009 (ip), vehicle: Klucel (hydroxypropylcellulose) (HPC)
[8] = dose: 100.0 mg/kg/injection, schedule: Q01DX009 (ip), vehicle: Klucel (hydroxypropylcellulose) (HPC)
[9] = dose: 6.25 mg/kg/injection, schedule: Q01DX009 (ip), vehicle: saline with Tween-80
[10] = dose: 25.0 mg/kg/injection, schedule: Q01DX009 (ip), vehicle: saline with Tween-80
[11] = dose: 200.0 mg/kg/injection, schedule: Q01DX009 (ip), vehicle: Klucel (hydroxypropylcellulose) (HPC)
[12] = dose: 25.0 mg/kg/injection, schedule: Q04DX003 (ip), vehicle: saline
[13] = dose: 50.0 mg/kg/injection, schedule: Q04DX003 (ip), vehicle: saline
[14] = dose: 100.0 mg/kg/injection, schedule: Q04DX003 (ip), vehicle: saline

SMILES: Cc1n(CC(C)C)c2c([n+]1C)C(=O)c1ccccc1C2=O
- T/C (dose: 1.0 mg/kg/injection, schedule: Q01DX009 (ip), vehicle: saline): 90 % of control
- T/C (dose: 2.0 mg/kg/injection, schedule: Q01DX009 (ip), vehicle: saline): 87 % of control

SMILES: CC1(O)Nc2nc3c(ncn3C3OC(CO)C(O)C3O)c(=O)n2C1O (stereo not given)
- T/C (dose: 12.5 mg/kg/injection, schedule: Q01DX009 (ip), vehicle: water): 96 % of control
- T/C (dose: 25.0 mg/kg/injection, schedule: Q01DX009 (ip), vehicle: water): 103 % of control
- T/C (dose: 50.0 mg/kg/injection, schedule: Q01DX009 (ip), vehicle: water): 101 % of control
- T/C (dose: 100.0 mg/kg/injection, schedule: Q01DX009 (ip), vehicle: water): 100 % of control
- T/C (dose: 200.0 mg/kg/injection, schedule: Q01DX009 (ip), vehicle: water): 97 % of control
- T/C (dose: 400.0 mg/kg/injection, schedule: Q01DX009 (ip), vehicle: water): 95 % of control

SMILES: CN1CCN(CCCN2c3ccccc3Sc3ccc(Cl)cc32)CC1
- T/C (dose: 0.19 mg/kg/injection, schedule: Q01DX009 (ip), vehicle: saline): 111 % of control
- T/C (dose: 0.39 mg/kg/injection, schedule: Q01DX009 (ip), vehicle: saline): 97 % of control
- T/C (dose: 0.78 mg/kg/injection, schedule: Q01DX009 (ip), vehicle: saline): 100 % of control

SMILES: O=C1c2ccccc2C(=O)c2c(NCCNCCNCCO)ccc(NCCNCCNCCO)c21
- T/C (dose: 8.0 mg/kg/injection, schedule: Q01DX009 (ip), vehicle: acid diluted with saline): 97 % of control
- T/C (dose: 16.0 mg/kg/injection, schedule: Q01DX009 (ip), vehicle: acid diluted with saline): 101 % of control
- T/C (dose: 32.0 mg/kg/injection, schedule: Q01DX009 (ip), vehicle: acid diluted with saline): 103 % of control
- T/C (dose: 64.0 mg/kg/injection, schedule: Q01DX009 (ip), vehicle: acid diluted with saline): 100 % of control
- T/C (dose: 128.0 mg/kg/injection, schedule: Q01DX009 (ip), vehicle: acid diluted with saline): 98 % of control

SMILES: C1#CCCCCCC#CCCCC1
- T/C [1]: 89 % of control
- T/C [2]: 91 % of control
- T/C [3]: 97 % of control
- T/C [4]: 100 % of control
- T/C [5]: 89 % of control and 94 % of control

SMILES: COc1cc2c[n+](C)c3c(c2cc1OC)Cc1cc2c(cc1-3)OCO2
- T/C [6]: 120 % of control

SMILES: CC(C)(C)C1CCCCC1
- T/C (dose: 12.5 mg/kg/injection, schedule: Q01DX009 (ip), vehicle: Klucel (hydroxypropylcellulose) (HPC)): 96 % of control
- T/C (dose: 25.0 mg/kg/injection, schedule: Q01DX009 (ip), vehicle: Klucel (hydroxypropylcellulose) (HPC)): 105 % of control
- T/C [7]: 95 % of control
- T/C [8]: 88 % of control

SMILES: O=CNC(Cc1cnc[nH]1)C(=O)O (stereo not given)
- T/C [4]: 102 % of control
- T/C [6]: 100 % of control
- T/C (dose: 200.0 mg/kg/injection, schedule: Q01DX009 (ip), vehicle: saline with Tween-80): 103 % of control
- T/C (dose: 400.0 mg/kg/injection, schedule: Q01DX009 (ip), vehicle: saline with Tween-80): 100 % of control

SMILES: Cc1nc2c(O)ccc(O)c2nc1C
- T/C (dose: 1.56 mg/kg/injection, schedule: Q01DX009 (ip), vehicle: saline with Tween-80): 106 % of control
- T/C (dose: 3.13 mg/kg/injection, schedule: Q01DX009 (ip), vehicle: saline with Tween-80): 102 % of control
- T/C [9]: 100 % of control
- T/C [4]: 89 % of control

SMILES: c1ccc2c(c1)CCc1ccccc1C2NC1=NCCO1
- T/C [9]: 104 % of control
- T/C [1]: 100 % of control
- T/C [10]: 92 % of control

SMILES: Cn1c(C[N+](C)(C)C)cc2ccccc21
- T/C [10]: 97 % of control
- T/C [4]: 94 % of control
- T/C [6]: 86 % of control

SMILES: Nc1ncnc2c1ncn2Cc1ccccc1
- T/C [7]: 89 % of control and 90 % of control
- T/C [8]: 90 % of control and 100 % of control
- T/C [11]: 86 % of control

SMILES: S=C(Nc1ccccn1)c1ccccn1
- T/C [1]: 92 % of control
- T/C [10]: 112 % of control
- T/C [4]: 94 % of control
- T/C [6]: 93 % of control

SMILES: O=C(O)C(=O)O.O=C([O-])C(=O)[O-].O=C([O-])C(=O)[O-].[NH-]CC[NH-].[NH-]CC[NH-].[NH-]CC[NH-].[Ru+4].[Ru+5]
- T/C (dose: 12.5 mg/kg/injection, schedule: Q04DX003 (ip), vehicle: water): 112 % of control
- T/C (dose: 25.0 mg/kg/injection, schedule: Q04DX003 (ip), vehicle: water): 107 % of control

SMILES: CC(C)(C)OC(=O)NCC(=O)NCC(=O)O (Boc-Gly-Gly-OH)
- T/C (dose: 50.0 mg/kg/injection, schedule: Q01DX009 (ip), vehicle: saline): 94 % of control
- T/C (dose: 100.0 mg/kg/injection, schedule: Q01DX009 (ip), vehicle: saline): 96 % of control

SMILES: C[C@]12CC[C@H](OC(=O)COc3ccc(N(CCCl)CCCl)cc3)C[C@@H]1CC[C@@H]1[C@@H]2CC[C@]2(C)NC(=O)CC[C@@H]12
- T/C (dose: 4.0 mg/kg/injection, schedule: Q01DX009 (ip), vehicle: saline with Tween-80): 111 % of control
- T/C (dose: 32.0 mg/kg/injection, schedule: Q01DX009 (ip), vehicle: saline with Tween-80): 109 % of control

SMILES: CCOc1ccc2c(ccc(/C=C\c3cc(C)c4cccnc4c3O)[n+]2C)c1
- T/C [9]: 102 % of control
- T/C [1]: 101 % of control

SMILES: Oc1c(Cl)c(Cl)c(Cl)c(Cl)c1Cl (tested in a mixture with another compound)
- T/C [1]: 107 % of control
- T/C [2]: 122 % of control
- T/C [10]: 115 % of control
- T/C [3]: 102 % of control
- T/C [4]: 121 % of control
- T/C [5]: 102 % of control

SMILES: [N-]=[N+]=CC(=O)CCC(=O)C=[N+]=[N-]
- T/C (dose: 0.18 mg/kg/injection, schedule: Q01DX009 (ip), vehicle: other): 92 % of control
- T/C (dose: 0.37 mg/kg/injection, schedule: Q01DX009 (ip), vehicle: other): 96 % of control
- T/C (dose: 0.39 mg/kg/injection, schedule: Q01DX009 (ip), vehicle: other): 123 % of control
- T/C (dose: 0.75 mg/kg/injection, schedule: Q01DX009 (ip), vehicle: other): 92 % of control
- T/C (dose: 1.5 mg/kg/injection, schedule: Q01DX009 (ip), vehicle: other): 104 % of control
- T/C (dose: 1.56 mg/kg/injection, schedule: Q01DX009 (ip), vehicle: other): 101 % of control and 117 % of control

SMILES: ClC1=C(Cl)C2(Cl)C3C(Cl)C(Cl)CC3C1(Cl)C2(Cl)Cl (stereo not given)
- T/C [1]: 95 % of control
- T/C [10]: 97 % of control

SMILES: NNC(=O)c1ccc(Cl)cc1Nc1ccc(F)cc1
- T/C [12]: 92 % of control
- T/C [13]: 97 % of control
- T/C [14]: 100 % of control

SMILES: NN1C(=O)c2ccc3c4c(ccc(c24)C1=O)CC3
- T/C (dose: 50.0 mg/kg/injection, schedule: Q01DX009 (ip), vehicle: suspension in saline): 104 % of control
- T/C (dose: 100.0 mg/kg/injection, schedule: Q01DX009 (ip), vehicle: suspension in saline): 102 % of control
- T/C (dose: 200.0 mg/kg/injection, schedule: Q01DX009 (ip), vehicle: suspension in saline): 97 % of control
- T/C (dose: 400.0 mg/kg/injection, schedule: Q01DX009 (ip), vehicle: suspension in saline): 102 % of control

SMILES: NC(=S)N/N=C\c1nccc2c(C(F)(F)F)cccc12
- T/C (dose: 1.5 mg/kg/injection, schedule: Q04DX003 (ip), vehicle: saline with Tween-80): 105 % of control
- T/C (dose: 3.0 mg/kg/injection, schedule: Q04DX003 (ip), vehicle: saline with Tween-80): 110 % of control
- T/C (dose: 6.0 mg/kg/injection, schedule: Q04DX003 (ip), vehicle: saline with Tween-80): 100 % of control
- T/C (dose: 12.0 mg/kg/injection, schedule: Q04DX003 (ip), vehicle: saline with Tween-80): 102 % of control

SMILES: O=C(CC1(Cl)C(F)(F)C(F)(F)C1(F)F)c1ccccc1
- T/C (dose: 0.75 mg/kg/injection, schedule: Q01DX009 (ip), vehicle: saline with Tween-80): 100 % of control
- T/C (dose: 1.5 mg/kg/injection, schedule: Q01DX009 (ip), vehicle: saline with Tween-80): 100 % of control
- T/C (dose: 3.0 mg/kg/injection, schedule: Q01DX009 (ip), vehicle: saline with Tween-80): 95 % of control
- T/C (dose: 4.0 mg/kg/injection, schedule: Q04DX003 (ip), vehicle: saline): 100 % of control
- T/C [1]: 90 % of control
- T/C [3]: 102 % of control

SMILES: CCC(C(=O)O)C(=O)O.[NH2-].[NH2-].[Pt+2]
- T/C (dose: 8.0 mg/kg/injection, schedule: Q01DX009 (ip), vehicle: water): 115 % of control
- T/C (dose: 12.5 mg/kg/injection, schedule: Q04DX003 (ip), vehicle: saline): 108 % of control and 113 % of control
- T/C (dose: 16.0 mg/kg/injection, schedule: Q01DX009 (ip), vehicle: water): 170 % of control
- T/C [12]: 170 % of control
- T/C [13]: 177 % of control and 219 % of control
- T/C [14]: 112 % of control and 247 % of control

SMILES: CC1(C)C2CCC1C(CO)C2 (stereo not given)
- T/C [7]: 100 % of control
- T/C [8]: 103 % of control
- T/C [11]: 90 % of control
